Patent US20210024483A1, “HETEROCYLCOALKENYL DERIVATIVES USEFUL AS AGONISTS OF THE GPR120 AND / OR GPR40” (Janssen Pharmaceutica NV, priority 2018, published 2021)

What follows are compounds tested against T1, Human GPR120 short form (short splice variant, NM_001195755.1) (Homo sapiens, UniProt Q5NUL3) (assay: Human GPR120 Calcium Flux Assay). Conditions: HEK-293 cells, 4200 cells/well, read-out: Human GPR120 Calcium Flux Assay Procedure B EC50.
T1 construct: expressed in transfected cells; host or cells: HEK293
T1 sequence (Q5NUL3 1-361): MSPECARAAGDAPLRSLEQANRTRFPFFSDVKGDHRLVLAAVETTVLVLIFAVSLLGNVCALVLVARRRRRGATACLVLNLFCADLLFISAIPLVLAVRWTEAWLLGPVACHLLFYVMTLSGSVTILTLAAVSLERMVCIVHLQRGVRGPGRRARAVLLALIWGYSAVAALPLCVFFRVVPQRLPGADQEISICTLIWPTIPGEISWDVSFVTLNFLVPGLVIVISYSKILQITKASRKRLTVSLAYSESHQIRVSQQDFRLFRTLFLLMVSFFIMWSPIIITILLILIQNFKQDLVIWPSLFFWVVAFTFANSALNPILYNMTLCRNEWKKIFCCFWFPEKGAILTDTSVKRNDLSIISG
Assay type: cell-based
Source text: In Vitro Assay: Human GPR120 in Calcium Flux Assay
This in vitro assay serves to assess test compound agonist activity against the short splice variant (SVS with Accession number NM_001195755.1 confirmed by sequencing data) of the GPR120 receptor. The Human Short splice variant #2 (NM_001195755.1) is missing an in-frame coding exon compared to variant 1 (the Human Long splice variant NM_181745.3), resulting in a shorter isoform (GPR120-S) lacking a 16 aa protein segment compared to isoform GPR120-L. The assay platform utilizes HEK-293 cells stably transfected to express the Human GPR120 short form. These cells are first loaded with the Ca^+2 sensitive dye, Fluo-4 NW. Upon stimulation, intracellular released Ca^+2 can bind to the dye and alter its fluorescence intensity. This increase in fluorescence signal, and thus the flux in intracellular [Ca^2+], is detected and quantitated by fluorescence imaging using a FLIPR reader. The effect of the agonist is measured as a function of concentration and used to calculate an EC50 based upon a response curve. […]
In this procedure 4200 cells/well were employed.
A Human GPR120 clone (Genbank accession number NM_001195755.1) was placed into the pcDNA3.1 mammalian expression vector carrying the neomycin resistance gene. A stable mammalian cell was generated by placing the above clone into a HEK293 background. Clonal cells responding to long chain fatty acids had expression levels of GPR120 confirmed by RT-qPCR. Human HEK-GPR120 cells were cultured in Dulbecco's Modified Eagle's Medium (DMEM)/F12 medium supplemented with 10% fetal bovine serum (FBS), 1% L-Glutamine and 1% penicillin/streptomycin and 0.5 mg/ml G-418. Cells were split 2 times a week to keep the cells in the log-phase growth.
In preparation for the assay, HEK cells stably transfected with Human GPR120 (2.5K cells per well in 25 uL growth medium) were seeded into 384-well plates and then incubated overnight (37° C., 5% CO2). The next day, the media was changed to 20 μL assay buffer and the cell starved for 1 h at 37° C. The dye loading solution (2× dye) was prepared using 10 mL assay buffer, 100 μL of 250 mM probenecid, 1 bottle of Component A, and 20 μl of dye in DMSO. Twenty μL of the 2× dye loading buffer was then added to each well. The plates were incubated at 37° C. for 30 min, then at room temperature for an additional 15 minutes, before performing the assay on FLIPR.
The assay was performed on a FLIPR plate reader using the following parameters. Baseline was read for 10 seconds at 1 sec intervals. The program was set to transfer 10 μL of ligand from compound plate to cell plate after baseline reading. Aspiration was executed at: 10 μL/sec speed, 4.6 μL height; Dispensing was executed at: 30 μL/sec speed, 45 μL height. After compound addition, each well was read for 300 sec, with measurements collected at 1 sec intervals.
The kinetic data from the FLIPR was based upon a 5 minute window for data collection. The fluorescence of each sample well was used for individual calculations of a normalized RFU value, which was defined as maximum response minus the minimum response. The normalized fluorescence reading (RFU) was calculated as follows:
The data were fitted to a sigmoidal dose-response curve with a variable Hill slope (<2) using nonlinear regression with GraphPad Prism 5.0 to calculate the EC50 values. The Fitting Equation was: Y=Bottom+(Top−Bottom)/(1+10^((Log EC50−X)*HillSlope)), where X is the log of the concentration and Y is the response.

| Structure (SMILES) | EC50 [nM] |
| --- | --- |
| Cc1cc(CCC(=O)O)ccc1OCC1=C(c2ccc(F)cc2)C[S+]([O-])C1 (stereo not shown) [compound 627] | > 5000 |
| Cc1cc(CCC(=O)O)ccc1OCC1=C(c2ccccc2)COC1 [compound 630] | 229 |
| Cc1c(CCC(=O)O)ccc(OCC2=C(c3ccccc3F)CCOC2)c1C [compound 651] | 202 |
| Cc1c(CCC(=O)O)ccc(OCC2=C(c3cccnc3)CCOC2)c1C [compound 654] | > 5000 |
| Cc1ccc(C2=C(COc3ccc(CCC(=O)O)c(C)c3C)COCC2)cc1 [compound 655] | 94 |
| COc1cccc(C2=C(COc3ccc(CCC(=O)O)c(C)c3C)COCC2)c1 [compound 656] | 868 |
| Cc1c(CCC(=O)O)ccc(OCC2=C(c3ccc(F)cc3F)CCOC2)c1C [compound 660] | 149 |
| Cc1cc(C2=C(COc3ccc(CCC(=O)O)c(C)c3C)COCC2)ccc1F [compound 661] | 527 |
| COc1cc(Cl)ccc1C1=C(COc2ccc(CCC(=O)O)c(C)c2C)COCC1 [compound 662] | 2200 |
| Cc1c(CCC(=O)O)ccc(OCC2=C(c3ccc(Cl)c(F)c3)CCOC2)c1C [compound 663] | 170 |
| COc1cc(C2=C(COc3ccc(CCC(=O)O)c(C)c3C)COCC2)ccc1Cl [compound 664] | > 5000 |
| Cc1ccc(C2=C(COc3ccc(CCC(=O)O)c(C(F)F)c3)COCC2)cc1 [compound 665] | 832 |
| Cc1ccc(C2=C(COc3cc(C(F)(F)F)c(CCC(=O)O)c(C(F)(F)F)c3)COCC2)cc1 [compound 666] | 2750 |
| Cc1c(CCC(=O)O)ccc(OCC2=C(c3ccc(Cl)cc3F)CCOC2)c1C [compound 667] | 115 |
| Cc1cccc(C)c1C1=C(COc2ccc(CCC(=O)O)c(Cl)c2)COCC1 [compound 669] | > 5000 |
| O=C(O)CCc1ccc(OCC2=C(c3cccc4c3OC(F)(F)O4)CCOC2)cc1C(F)(F)F [compound 673] | > 5000 |
| O=C(O)CCc1ccc(OCC2=C(c3ccccc3OC(F)(F)F)CCOC2)cc1C(F)(F)F [compound 674] | > 5000 |
| O=C(O)CCc1ccc(OCC2=C(Cc3ccccc3)CCOC2)cc1C(F)(F)F [compound 678] | > 5000 |

Other lines, results leading:

| EC50 [nM] | Structure (SMILES) |
| --- | --- |
| 498 | Cc1ccc(C2=C(COc3ccc(CCC(=O)O)c(C(F)(F)F)c3)COCC2)cc1 [compound 668] |
| > 5000 | CC1(C)CCC=C1C1=C(COc2ccc(CCC(=O)O)c(C(F)(F)F)c2)COCC1 [compound 670] |
| > 5000 | Cc1cccc(C)c1C1=C(COc2ccc(CCC(=O)O)c(C(F)(F)F)c2)COCC1 [compound 671] |
| > 5000 | COc1ccccc1C1=C(COc2ccc(CCC(=O)O)c(C(F)(F)F)c2)COCC1 [compound 676] |
| > 5000 | CC(C)Oc1ccccc1C1=C(COc2ccc(CCC(=O)O)c(C(F)(F)F)c2)COCC1 [compound 677] |
| 1920 | Cc1cc(C2=C(COc3ccc(CCC(=O)O)c(C(F)(F)F)c3)COCC2)ccc1Cl [compound 679] |
| 2630 | O=C(O)CCc1ccc(OCC2=C(c3ccc(Cl)c(Cl)c3)CCOC2)cc1C(F)(F)F [compound 680] |
| > 5000 | Cc1cc(C)c(C2=C(COc3ccc(CCC(=O)O)c(C(F)(F)F)c3)COCC2)cc1C [compound 681] |
| > 5000 | Cc1cc(Cl)ccc1C1=C(COc2ccc(CCC(=O)O)c(C(F)(F)F)c2)COCC1 [compound 682] |
| 1060 | Cc1ccc(C2=C(COc3ccc(CCC(=O)O)c(C(F)(F)F)c3)COCC2)cc1C [compound 683] |
